According to patent US20190151320A1, “APPLICATION OF MAPK SIGNALING PATHWAY INHIBITOR IN MANUFACTURE OF DRUGS FOR DELAYING DEGENERATION OF DOPAMINERGIC NEURONS” (FUZHOU UNIVERSITY, priority 2016, published 2019):

Test system: dopaminergic neurons in the PPL brain region
Assay: Dopaminergic neuron morphology and quantity in PPL brain regions of PD model fruit flies after 30 days of drug feeding
Assay type: in vivo, Drosophila melanogaster
Details: fruit fly PD models (alpha-synuclein overexpression, Lrrk2 overexpression, Parkin mutation, Pink1 mutation); for effect on degenerative death/loss of dopaminergic neurons in the PPL brain region (morphology and quantity): 1 μg/mL in feed for 30 days
Method: Animal models of PD caused by alpha-synuclein transgene overexpression, Lrrk2 transgene overexpression, Parkin gene mutation and Pink1 gene mutation were established in the four model groups. Each group includes 90 fruit flies and each group was further equally divided into three groups, drug-feeding groups and non-drug-feeding control group, for testing. Starting from imago at the age of 5 days, the drug-feeding group was continuously fed with 0.1 μg/mL, 1 μg/mL U0126 (U0126 is dissolved in 1% DMSO) for 30 days and the non-drug-feeding control group was fed with 1% DMSO as a solvent control. After 30 days of drug or control solvent feeding, the brains of fruit flies were dissected and the dopamine neurons were labeled by the whole-tissue immunostaining of the brains of the fruit flies with an anti-dopamine hydroxylase antibody. The morphology and quantity of the dopamine neurons in the PPL regions in the brains of the fruit flies were observed microscopically to determine the effect of U0126 on the dopaminergic neurons in the local brain regions.
Animal models of PD caused by alpha-synuclein transgene overexpression, Lrrk2 transgene overexpression, Parkin gene mutation and Pink1 gene mutation were established in the four model groups. Each group includes 90 fruit flies and each group was further equally divided into 2 drug-feeding groups and 1 non-drug-feeding control group for testing. […] The morphology and quantity of the dopamine neurons in the PPL regions in the brains of the fruit flies were observed microscopically to determine the effect of PD0325901 on the dopaminergic neurons in the local brain regions of the fruit flies.
Animal models of PD caused by alpha-synuclein transgene overexpression, Lrrk2 transgene overexpression, Parkin gene mutation and Pink1 gene mutation were established in the four model groups. […] The morphology and quantity of the dopamine neurons in the PPL regions in the brains of the fruit flies were observed microscopically to determine the effect of trametinib on the dopaminergic neurons in the local brain regions of the fruit flies.

Row | Structure (SMILES) | effect on degenerative death/loss of dopaminergic neurons in the PPL brain region (morphology and quantity) | effect on degenerative death of dopaminergic neurons in the PPL brain region (morphology and quantity) (16.24 μM/mL in feed for 30 days)
1 | O=C(NOC[C@H](O)CO)c1ccc(F)c(F)c1Nc1ccc(I)cc1F [PD0325901] | can effectively reverse the degenerative loss of the dopaminergic neurons | 
2 | N#CC(=C(/N)Sc1ccccc1N)/C(C#N)=C(\N)Sc1ccccc1N [U0126] | can effectively reverse the degenerative death of the dopaminergic neurons | 
3 | CC(=O)Nc1cccc(-n2c(=O)n(C3CC3)c(=O)c3c(Nc4ccc(I)cc4F)n(C)c(=O)c(C)c32)c1 [trametinib] |  | can effectively reverse the degenerative death of the dopaminergic neurons
